Measurements as given in patent publication US20240018121A1, “NOVEL HETEROAROMATIC COMPOUNDS EXHIBITING ANTIFUNGAL ACTIVITY AND THEIR METHOD OF USE” (FOX CHASE CHEMCIAL DIVERSITY CENTER, INC., priority 2020, published 2024).
≈ marks a conversion by molar mass, not a printed value. Structures can show the parent of a compound that is named as a salt. Where two headings read alike, the source gives them in different places.

Key:
Type in all cases: cell-based
[1] = tested on: Aspergillus flavus AFL1 (ATCC MYA-3631); assay: Fungal MIC Protocol, Aspergillus flavus; settings: Aspergillus flavus, read-out: MIC Aspergillus flavus 3631
How it was run: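 The MIC against Aspergillus flavus was measured by broth microdilution in RPMI/MOPS medium at pH 7.0. Compounds were diluted to 200 ug/mL from DMSO stocks, then ten serial dilutions were tested in duplicate in round bottom 96-well plates. Spores adjusted to a final OD530 of 0.002 were added, with no-cell and no-compound control wells, and plates were incubated 48 hours at 35° C.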

[2] = tested on: Mucor circinelloides 1463(62) (ATCC 26759); assay: Fungal MIC Protocol, Mucor circinelloides (MIC-50); settings: Mucor circinelloides, read-out: MIC-50 Mucorales circinelloides 26579
How it was run: (§1)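 MIC-type endpoint: >50% growth inhibition, judged by eye with an inverted mirror. Spores in RPMI/MOPS (pH 7.0, ~2×10^4 cfu/mL) were incubated 48 hours at 35° C with duplicate serial compound dilutions.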

[3] = tested on: Fusarium solani (ATCC 58877); assay: Fungal MIC Protocol, Fusarium solani; settings: Fusarium solani, read-out: MIC Fusarium solani 58877
How it was run: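 Broth microdilution MIC test against Fusarium solani in RPMI/MOPS medium at pH 7.0. Compounds from DMSO stock were diluted to 200 ug/mL, then serially diluted ten times and plated in duplicate at 50 μl per well. 50 ul of spore suspension at OD530 0.005 was added. Controls had compound without cells and spores without compound. Plates were mixed gently, bagged, and incubated at 35° C. for 48 hours.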

[4] = tested on: Fusarium falciforme FS1 (ATCC MYA-3636); assay: Fungal MIC Protocol, Fusarium falciforme; settings: Fusarium falciforme, read-out: MIC Fusarium falciforme 3636
How it was run: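 MIC against Fusarium falciforme was determined by broth microdilution in RPMI/MOPS medium containing glucose. Compounds started at 200 ug/mL and were serially diluted ten times, then combined with harvested spores adjusted to an OD530 of 0.005. Controls held compound without cells and spores without compound. Plates were bagged and incubated at 35° C. for 48 hours.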

[5] = tested on: Mucor ramosissimus 057718 (ATCC 90286); assay: Fungal MIC Protocol, Mucor ramosissimus (MIC-50); settings: Mucor ramosissimus, read-out: MIC-50 Mucorales ramosissimus 90286
How it was run: as §1

[6] = tested on: Aspergillus fumigatus T33439 (ATCC MYA-3626); assay: Fungal MIC Protocol, Aspergillus fumigatus; settings: Aspergillus fumigatus, read-out: MIC Aspergillus fumigatus 3626
How it was run: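 This broth microdilution MIC test used RPMI/MOPS medium at pH 7.0 with glucose. Compounds were diluted from DMSO stock to 200 ug/mL and serially diluted ten times in 96-well round bottom plates. Equal volumes of compound and Aspergillus spore suspension at OD530 0.002 were combined, with controls of compound without cells and spores without compound. Plates were bagged and incubated at 35° C. for 48 hours.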

Candida albicans GDH2346 = assay: Candida Minimal Inhibitory Concentration (MIC); settings: Candida albicans, read-out: MIC-50 Candida albicans GDH2346
Description: Candida Minimal Inhibitory Concentration (MIC): RPMI/MOPS media is prepared by dissolving 8.4 g RPMI 1640, 34.52 g MOPS buffer and 2 g glucose in 900 mL water. The pH is adjusted to 7.0 with NaOH. The total volume is brought to 1 L and the resulting solution is filter sterilized. The Candida stock is streaked on a Yeast extract Peptone Dextrose (YPD) agar plate and grown at 35° C. for isolation of single colonies. Compounds of the disclosure are diluted to 200 μg/mL in RPMI/MOPS (4.8 ul of 10 mg/mL DMSO stock in 240 ul media). Ten (10) 1:2 serial dilutions are prepared in RPMI/MOPS in a 96-well round bottom plate. Fifty (50) μl of compound dilutions are transferred in duplicate to a sterile tissue culture-treated 96-well flat-bottom, black-sided polypropylene plate. A single colony of Candida from the YPD plate is re-suspended in 5 mL phosphate buffered saline (BS) and optical density (OD) at 600 nm is measured. The suspension is adjusted to OD=1.0 and a 1:1000 dilution is prepared in RPMI/MOPS. Fifty (50) ul aliquots of the diluted yeast are added to the plates containing 50 μL of compound to all wells except 12E-H. Control wells include: 12 A-D cells, no compound and 12 E-H no cells, no compound. The plates are mixed gently by hand and placed in Ziplok bags in a 35° C. incubator. The OD600 is measured at 24 and 48 hours.

[7] = 100% growth inhibition at 48 hours
[8] = ATCC26759, 50% growth inhibition at 48 hours
[9] = ATCC58877, 100% growth inhibition at 48 hours
[10] = ATCC90286, 50% growth inhibition at 48 hours
[11] = GDH2346, 50% growth inhibition at 48 hours

Structure (SMILES)	MIC ([1]; 48 h)	MIC50 ([2]; ATCC26759, 48 h)	MIC ([3]; ATCC58877, 48 h)	MIC ([4]; 48 h)	MIC50 ([5]; ATCC90286, 48 h)	MIC ([6]; 48 h)	MIC50 (Candida albicans GDH2346; GDH2346, 48 h)	MIC [1, 7]	MIC50 [2, 8]	MIC [3, 9]	MIC [4, 7]	MIC50 [5, 10]	MIC [6, 7]	MIC50 (Candida albicans GDH2346; [11])
COCCn1c(-c2ccc(C3=CCN(C(=N)N)CC3)cc2)nnc1-c1ccc(C2=CCN(C(=N)N)CC2)cc1 [Example 67, 4-(4-{5-[4-(1-carbamimidoyl-1,2,3,6-tetrahydropyridin-4-yl)phenyl]-4-(2-methoxyethyl)-4H-1,2,4-triazol-3-yl}phenyl)-1,2,3,6-tetrahydropyridine-1-carboximidamide trifluoroacetate]	0.1 µg/mL	0.39 µg/mL	0.05 µg/mL	0.05 µg/mL	1.56 µg/mL	0.1 µg/mL	0.2 µg/mL	–	–	–	–	–	–	–
N=C(N)N1CC=C(c2ccc(-c3nnc(-c4ccc(C5=CCN(C(=N)N)CC5)cc4F)n3CC(F)(F)F)c(F)c2)CC1 [Example 84, 4-(4-{5-[4-(1-carbamimidoyl-1,2,3,6-tetrahydropyridin-4-yl)-2-fluorophenyl]-4-(2,2,2-trifluoroethyl)-4H-1,2,4-triazol-3-yl}-3-fluorophenyl)-1,2,3,6-tetrahydropyridine-1-carboximidamide hydrochloride]	0.39 µg/mL	0.39 µg/mL	0.05 µg/mL	0.1 µg/mL	0.78 µg/mL	0.2 µg/mL	0.2 µg/mL	–	–	–	–	–	–	–
N=C(N)N1CC=C(c2ccc(-c3nnc(-c4ccc(C5=CCN(C(=N)N)CC5)cc4)n3C3CCC3)cc2)CC1 [Example 6, 4,4′-(4,4′-(4-Cyclobutyl-4H-1,2,4-triazole-3,5-diyl)bis(4,1-phenylene))bis(5,6-dihydropyridine-1(2H)-carboximidamide)]	–	–	–	–	–	–	–	0.39 µg/mL (≈ 0.748 µM)	0.78 µg/mL (≈ 1.5 µM)	0.39 µg/mL (≈ 0.748 µM)	< 0.1 µg/mL	1.56 µg/mL (≈ 2.99 µM)	0.2 µg/mL (≈ 0.383 µM)	3.13 µg/mL (≈ 6 µM)
Cn1c(-c2cc(F)c(C3=CCN(C(=N)N)CC3)cc2F)nnc1-c1cc(F)c(C2=CCN(C(=N)N)CC2)cc1F [Example 20, 4,4′-(4,4′-(4-Methyl-4H-1,2,4-triazole-3,5-diyl)bis(2,5-difluoro-4,1-phenylene))bis(5,6-dihydropyridine-1(2H)-carboximidamide)]	–	–	–	–	–	–	–	0.2 µg/mL (≈ 0.361 µM)	0.78 µg/mL (≈ 1.41 µM)	0.2 µg/mL (≈ 0.361 µM)	< 0.1 µg/mL	12.5 µg/mL (≈ 22.6 µM)	< 0.1 µg/mL	0.78 µg/mL (≈ 1.41 µM)
CC(C)n1c(-c2ccc(C3=CCN(C(=N)N)CC3)cc2)nnc1-c1ccc(C2=CCN(C(=N)N)CC2)cc1 [Example 3, 4,4′-(4,4′-(4-isopropyl-4H-1,2,4-triazole-3,5-diyl)bis(4,1-phenylene))bis(5,6-dihydropyridine-1 (2H)-carboximidamide)]	–	–	–	–	–	–	–	< 0.1 µg/mL	0.39 µg/mL (≈ 0.765 µM)	< 0.1 µg/mL	< 0.1 µg/mL	0.78 µg/mL (≈ 1.53 µM)	< 0.1 µg/mL	0.1 µg/mL (≈ 0.196 µM)
Cn1c(-c2ccc(C3=CCN(C(=N)N)CC3)cc2)nnc1-c1ccc(C2=CCN(C(=N)N)CC2)cc1F [Example 78, 4-(4-{5-[4-(1-carbamimidoyl-1,2,3,6-tetrahydropyridin-4-yl)-2-fluorophenyl]-4-methyl-4H-1,2,4-triazol-3-yl}phenyl)-1,2,3,6-tetrahydropyridine-1-carboximidamide trifluoroacetate]	0.1 µg/mL	0.2 µg/mL	0.1 µg/mL	0.05 µg/mL	0.78 µg/mL	0.05 µg/mL	0.2 µg/mL	–	–	–	–	–	–	–
Cn1c(-c2ccc(C3=CCN(C(=N)N)CC3)cc2)nnc1-c1ccc(C2=CCN(C(=N)N)CC2)cc1 [Example 1, 4,4-(4,4-(4-Methyl-4H-1,2,4-triazole-3,5-diyl)bis(4,1-phenylene))bis(5,6-dihydropyridine-1(2H)-carboximidamide)]	–	–	–	–	–	–	–	0.1 µg/mL (≈ 0.208 µM)	0.2 µg/mL (≈ 0.415 µM)	0.78 µg/mL (≈ 1.62 µM)	< 0.05 µg/mL	0.78 µg/mL (≈ 1.62 µM)	< 0.05 µg/mL	< 0.2 µg/mL
Cn1c(-c2ccc(C3=CCN(C(=N)N)CC3)c(F)c2)nnc1-c1ccc(C2=CCN(C(=N)N)CC2)cc1F [Example 79, 4-(4-{5-[4-(1-carbamimidoyl-1,2,3,6-tetrahydropyridin-4-yl)-2-fluorophenyl]-4-methyl-4H-1,2,4-triazol-3-yl}-2-fluorophenyl)-1,2,3,6-tetrahydro pyridine-1-carboximidamide trifluoroacetate]	–	–	–	–	–	–	–	0.1 µg/mL	0.2 µg/mL	0.1 µg/mL	0.05 µg/mL	0.39 µg/mL	0.1 µg/mL	0.1 µg/mL
Cc1cc(-c2cn(-c3ccc(C4=CCN(C(=N)N)CC4)cc3)nn2)ccc1C1=CCN(C(=N)N)CC1 [Example 37, 4-(4-(4-(4-(1-Carbamimidoyl-1,2,3,6-tetrahydropyridin-4-yl)-3-methylphenyl)-1H-1,2,3-triazol-1-yl)phenyl)-5,6-dihydropyridine-1(2H)-carboximidamide]	–	–	–	–	–	–	–	0.2 µg/mL (≈ 0.415 µM)	0.39 µg/mL (≈ 0.81 µM)	0.39 µg/mL (≈ 0.81 µM)	0.39 µg/mL (≈ 0.81 µM)	6.25 µg/mL (≈ 13 µM)	0.39 µg/mL (≈ 0.81 µM)	0.78 µg/mL (≈ 1.62 µM)
N=C(N)N1CC=C(c2ccc(-c3cn(-c4ccc(C5=CCN(C(=N)N)CC5)cc4)nn3)cc2)CC1 [Example 30, 4(4-{1-[4-(1-Carbamimidoyl-1,2,3,6-tetrahydropyridin-4-yl)phenyl]-1H-1,2,3-triazol-4-yl}phenyl)-1,2,3,6-tetrahydropyridine-1-carboximidamide]	–	–	–	–	–	–	–	0.06 µg/mL (≈ 0.128 µM)	0.1 µg/mL (≈ 0.214 µM)	< 0.05 µg/mL	0.01 µg/mL (≈ 0.0214 µM)	0.78 µg/mL (≈ 1.67 µM)	0.01 µg/mL (≈ 0.0214 µM)	0.63 µg/mL (≈ 1.35 µM)
CCn1c(-c2ccc(C3=CCN(C(=N)N)CC3)cc2F)nnc1-c1ccc(C2=CCN(C(=N)N)CC2)cc1F [Example 10, 4,4′-(4,4′-(4-Ethyl-4H-1,2,4-triazole-3,5-diyl)bis(3-fluoro-4,1-phenylene)) bis(5,6-dihydropyridine-1(2H)-carboximidamide)]	–	–	–	–	–	–	–	< 0.1 µg/mL	0.78 µg/mL (≈ 1.47 µM)	< 0.1 µg/mL	< 0.1 µg/mL	1.56 µg/mL (≈ 2.93 µM)	< 0.1 µg/mL	< 0.1 µg/mL
Cc1cc(-n2nnc(-c3ccc(C4=CCN(C(=N)N)CC4)cc3)c2C)ccc1C1=CCN(C(=N)N)CC1 [Example 33, 4-(4-{4-[4-(1-Carbamimidoyl-1,2,3,6-tetrahydropyridin-4-yl)phenyl]-5-methyl-1H-1,2,3-triazol-1-yl}-2-methylphenyl)-1,2,3,6-tetrahydropyridne-1-carboximidamide]	–	–	–	–	–	–	–	0.04 µg/mL (≈ 0.0807 µM)	3.13 µg/mL (≈ 6.32 µM)	0.025 µg/mL (≈ 0.0504 µM)	0.05 µg/mL (≈ 0.101 µM)	12.5 µg/mL (≈ 25.2 µM)	0.63 µg/mL (≈ 1.27 µM)	0.08 µg/mL (≈ 0.161 µM)
